Experimental data: patent US9075014B2, “pH-responsive fluorescent false neurotransmitters and their use” (THE TRUSTEES OF COLUMBIA UNIVERSITY IN THE CITY OF NEW YORK, priority 2011, dated 2015)
Values joined by “and” are separate entries in the source; they are usually repeats but may differ in a detail not shown here. Equal entries are not always repeated. “Also recorded” adds a separate entry of the source.

How the values were obtained:
[1] = log D by shake flask method (n-octanol / PBS pH 7.4); format: physicochemical
Description: The log D values were determined by traditional shake flask method. Each measurement was performed in duplicate as follows. First, 20 μM probe solution in 1 mL PBS (pH 7.4) was prepared to which 1 mL of n-octanol was added and mixed thoroughly. The mixture was kept in dark for 3 days for complete equilibrium, and the concentrations of probe in each layer were determined based on the UV absorbance. Log D values were determined based on the equation; log D=log [probe]oct−log [probe]PBS, where [probe]oct and [probe]PBS are the concentrations of the probe in n-octanol and PBS, respectively.

[2] = pKa from absorption spectra in PBS at different pH; format: physicochemical; conditions: from absorbance at λabs,max versus pH of PBS
Description: UV absorption spectra were taken by adding probe (2 μL of 10 mM stock solution in DMSO) to 998 μL of PBS buffer at different pH values (final probe conc.=20 μM) in quartz cuvette.
The pKa values of probes were determined from the absorption spectra.

VMAT2 = molecular target: T1, VMAT2 (Rattus norvegicus, UniProt Q01827); experiment: Fluorescent microscopy probe uptake assay in VMAT2/HEK cells; format: cell-based; conditions: 20 μM probe; for Uptake pattern in screening with VMAT2/HEK and HEK cells: 30 min, VMAT2/HEK vs HEK cells, with or without 1 μM TBZ or reserpine; for Probe uptake in VMAT2-HEK cells: 30 min incubation
T1 construct: host or cells: HEK GnTI- (nonglycosylating) cells stably expressing VMAT2
Description: HEK GNTI^− (nonglycosylating) cell line stably expressing VMAT2 (VMAT2-HEK) and HEK GNU^− cell line stably transected with TetR (HEK) to serve as a control were kindly provided by the laboratory of Robert Edwards at UCSF. Cells were grown in DMEM+Glutamax (Invitrogen #10569) with 10% fetal bovine serum (FBS) (Atlanta Biologicals), 100 U/ml penicillin (Nitrogen), and 100 μg/ml streptomycin (Invitrogen). […] The medium was removed by aspiration, and the cells were washed with PBS (2 mL per well). […] Then, the probe uptake was initiated by adding 0.1 mL of experimental media containing probe (220 μM, prepared from 10 mM stock solution in DMSO, final conc.=20 μM in the uptake assay). After incubating at 37° C. for 30 minutes, the media was removed by aspiration, and the cells were washed with PBS (2 mL per well) and treated with probe-free experimental media. Fluorescence images were taken by using Leica FW 4000 equipped with Chroma custom filter cube (ex=350/50 nm, em=460/50 nm) and Hamamatsu digital camera C4742-95. The fluorescent images and bright field images were acquired for 2000 ms and 37 ms, respectively. All images were adjusted using the same contrast and brightness level using Images J (National Institute of Health).

HEK cells = experiment: Fluorescent microscopy probe uptake in control (non-transfected) HEK cells; format: cell-based, human; conditions: 20 μM probe, 30 min incubation
Description: HEK GNTI^− (nonglycosylating) cell line stably expressing VMAT2 (VMAT2-HEK) and HEK GNU^− cell line stably transected with TetR (HEK) to serve as a control were kindly provided by the laboratory of Robert Edwards at UCSF. Cells were grown in DMEM+Glutamax (Invitrogen #10569) with 10% fetal bovine serum (FBS) (Atlanta Biologicals), 100 U/ml penicillin (Nitrogen), and 100 μg/ml streptomycin (Invitrogen). […] After 5 days, the cells looked fibroblastic and had reached ˜70% confluence. The medium was removed by aspiration, and the cells were washed with PBS (2 mL per well). […] Then, the probe uptake was initiated by adding 0.1 mL of experimental media containing probe (220 μM, prepared from 10 mM stock solution in DMSO, final conc.=20 μM in the uptake assay). After incubating at 37° C. for 30 minutes, the media was removed by aspiration, and the cells were washed with PBS (2 mL per well) and treated with probe-free experimental media. Fluorescence images were taken by using Leica FW 4000 equipped with Chroma custom filter cube (ex=350/50 nm, em=460/50 nm) and Hamamatsu digital camera C4742-95. The fluorescent images and bright field images were acquired for 2000 ms and 37 ms, respectively. All images were adjusted using the same contrast and brightness level using Images J (National Institute of Health).

VMAT1 = molecular target: T2, VMAT1 (Rattus norvegicus, UniProt Q01818); experiment: Fluorescent microscopy uptake of Mini202 in PC-12 cells; format: cell-based
T2 construct: PC-12 cells express mostly VMAT1 on their secretory large dense core vesicles (LDCVs); host or cells: PC-12 cells
T2 sequence (Q01818 1-521): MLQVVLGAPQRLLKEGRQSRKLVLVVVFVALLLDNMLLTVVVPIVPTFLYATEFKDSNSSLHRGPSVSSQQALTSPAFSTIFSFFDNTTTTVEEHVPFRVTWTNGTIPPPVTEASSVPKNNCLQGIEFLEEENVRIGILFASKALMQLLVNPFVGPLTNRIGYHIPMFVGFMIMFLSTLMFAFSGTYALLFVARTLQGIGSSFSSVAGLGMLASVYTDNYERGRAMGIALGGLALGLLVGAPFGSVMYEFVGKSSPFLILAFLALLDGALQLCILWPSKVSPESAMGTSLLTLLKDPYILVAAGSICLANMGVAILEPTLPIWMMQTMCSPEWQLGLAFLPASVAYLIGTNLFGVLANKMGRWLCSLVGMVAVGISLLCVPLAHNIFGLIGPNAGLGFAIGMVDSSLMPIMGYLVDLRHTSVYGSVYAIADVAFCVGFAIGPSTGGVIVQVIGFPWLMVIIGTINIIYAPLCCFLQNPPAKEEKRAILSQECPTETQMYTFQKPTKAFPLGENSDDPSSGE
Description: PC-12 cells were purchased and maintained according to the protocols provided by American Type Culture Collection (ATCC, CRL-1721). Among the two variations of PC-12 provided by ATCC, the one displaying loosely adherent (with no PDL coating) and multicell-aggregating phenotype was used. PC-12 cells were grown in RPMI-1640 (Invitrogen, #11875) with 10% horse serum (Invitrogen, #16050-114), 5% fetal bovine serum (FBS) (Atlanta Biologicals), 100 U/ml penicillin (Invitrogen), and 100 μg/ml streptomycin (Invitrogen). […] After 6 days when the cells get ˜70% confluent, the medium was removed by aspiration, and the cells were washed with PBS (2 mL per well). […] Then, the probe uptake was initiated by adding 0.1 mL of experimental media containing Mini202 (220 μM, prepared from 10 mM stock solution in DMSO, final conc.=20 μM in the uptake assay) to the cells. After incubating the cells at 37° C. for 1 hour, the medium was removed by aspiration, and cells were washed with PBS (2 mL per well) and treated with dye-free experimental media. Fluorescence images were taken by using Leica FW 4000 equipped with Chroma custom filter cube (ex=350/50 nm, em=460/50 nm) and Hamamatsu digital camera C4742-95. The fluorescent images and bright field images were acquired for 2000 ms and 37 ms, respectively. […]

[3] = Photostability of probe in fluorescence microscopy
[4] = Two-photon ratiometric pH measurement of secretory vesicles (LDCVs) in PC-12 cells
VMAT2-HEK cells = experiment: Chloroquine-induced Mini202 redistribution in VMAT2-HEK cells; format: cell-based, human; conditions: chloroquine 300 μM, 3 min, VMAT2-HEK cells labeled with Mini202
Description: For the chloroquine-induced Mini202 redistribution experiment, after probe loading and cell washing with PBS, 1 mL of experimental media containing 300 μM chloroquine was added to the cells at RT for 3 minutes, after which time fluorescent images were taken by the same procedure described above.

LDCVs in PC-12 cells = experiment: Two-photon ratiometric pH measurement of secretory vesicles (LDCVs) in PC-12 cells; conditions: PC-12 cells loaded with Mini202, 100 μM methamphetamine, 5 minutes, RT
[5] = n-octanol/PBS, pH 7.4, n-octanol / PBS pH 7.4, 20 μM probe
[6] = PBS buffer at different pH values, read-out: pKa
[7] = n-octanol / PBS pH 7.4, 20 μM probe

T1 sequence (Q01827 whole entry): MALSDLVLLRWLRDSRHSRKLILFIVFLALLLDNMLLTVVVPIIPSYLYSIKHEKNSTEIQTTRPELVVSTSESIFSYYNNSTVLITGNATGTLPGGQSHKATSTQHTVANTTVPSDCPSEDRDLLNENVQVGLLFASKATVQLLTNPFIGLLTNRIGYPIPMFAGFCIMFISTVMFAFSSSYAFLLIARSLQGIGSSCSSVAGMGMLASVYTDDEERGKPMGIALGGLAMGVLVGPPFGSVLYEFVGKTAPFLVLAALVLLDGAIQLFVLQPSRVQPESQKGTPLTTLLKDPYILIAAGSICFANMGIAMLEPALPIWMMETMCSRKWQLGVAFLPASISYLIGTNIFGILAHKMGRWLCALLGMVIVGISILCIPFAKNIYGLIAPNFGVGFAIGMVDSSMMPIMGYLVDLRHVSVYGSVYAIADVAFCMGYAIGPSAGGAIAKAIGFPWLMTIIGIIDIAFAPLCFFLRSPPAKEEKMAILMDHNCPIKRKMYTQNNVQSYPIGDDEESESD

| SMILES | logD at 3 days [1, 5] | pKa [2, 6] | Uptake pattern in screening with VMAT2/HEK and HEK cells (VMAT2) | logD at 3 days [1, 7] | other results |
| --- | --- | --- | --- | --- | --- |
| NCCc1cc(=O)oc2cc(O)ccc12 [Mini101] | -0.94 | 7.2 | – | – | pKa [2]: 7.24 |
| NCCc1cc(=O)oc2cc(O)c(Cl)cc12 [Mini102] | -1.45 | 5.8 | – | – | pKa [2]: 5.77 |
| NCCc1cc(=O)oc2cc(O)c(F)cc12 [Mini103] | -1.98 | 5.95 | – | – | – |
| CC(C)(C)c1cc2c(CCN)cc(=O)oc2cc1O [Mini104] | 0.89 | 7.94 | non-selective uptake | – | – |
| CC(C)(C)CC(C)(C)c1cc2c(CCN)cc(=O)oc2cc1O [Mini105] | – | 8.49 | non-selective uptake | 1.3 | – |
| NCCc1cc(=O)oc2c(Cc3ccccc3)c(O)c(F)cc12 [Mini106] | – | 6.09 | VMAT2 substrates | 0.18 | – |
| NCCc1cc2ccc(O)cc2oc1=O [Mini201] | -1.01 | 7.6 | VMAT2 substrates | – | – |
| NCCc1cc2cc(Cl)c(O)cc2oc1=O [Mini202] | – | 6.1 | VMAT2 substrates | – | LogD (at pH 7.4) [1, 7]: −1.5 and −1.42; pKa [2]: 6.06; Probe uptake in VMAT2-HEK cells (VMAT2): highest uptake; also recorded: punctuate fluorescence patterns; Probe uptake in VMAT2-HEK cells (VMAT2; listed as Mini202.TFA): punctuate uptake in a VMAT2-dependent manner; also recorded: fluorescent puncta; Probe uptake in non-transfected HEK cells (HEK cells): No uptake; Probe uptake in non-transfected HEK cells (HEK cells; listed as Mini202.TFA): no uptake; Mini202 uptake / labeling in PC-12 cells (VMAT1; 20 μM, 1 h): fluorescent puncta; also recorded: VMAT1 substrate; Photostability [3]: photostable; pKa [4]: 5.93 ± 0.04 |
| NCCC(=O)c1cc2ccc(O)cc2oc1=O [Mini301] | – | 7 | no uptake in either cell lines | 0.14 | – |
| NCCC(=O)c1cc2cc(Cl)c(O)cc2oc1=O [Mini302] | – | 4.68 | no uptake in either cell lines | 0.24 | – |
| NCCc1cc2c(ccc3ccc(O)cc32)oc1=O [Mini401] | – | 9.36 | non-selective uptake | 0.86 | – |
| CCN(CC)CCCC(C)Nc1ccnc2cc(Cl)ccc12 (centres unmarked) [chloroquine] | – | – | – | – | Redistribution of Mini202 from acidic vesicles (VMAT2-HEK cells): diffusion of the punctuate fluorescent pattern; also recorded: redistribution of Mini202 from the acidic vesicles to cytosol |
| CN[C@@H](C)Cc1ccccc1 [methamphetamine] | – | – | – | – | emission ratio (I760/I692) after drug exposure (LDCVs in PC-12 cells): 1.19; vesicular pH in PC-12 cells after drug exposure (LDCVs in PC-12 cells): 6.36 and 6.4 |
| COC(=O)[C@H]1[C@H]2C[C@@H]3c4[nH]c5cc(OC)ccc5c4CCN3C[C@H]2C[C@@H](OC(=O)c2cc(OC)c(OC)c(OC)c2)[C@@H]1OC [reserpine, reference compound] | – | – | – | – | Effect of VMAT1 inhibitor on Mini202 uptake in PC-12 cells (VMAT1; reserpine 1 μM, 1 h pre-incubation, then 20 μM Mini202 1 h): no detectable labeling; also recorded: completely inhibited |
